Measured values taken from patent publication US20240156800A1, “EP300 DEGRADER AND USES THEREOF IN NEUROBLASTOMA” (DANA-FARBER CANCER INSTITUTE, INC., priority 2021, published 2024).
“Also recorded” adds a separate entry of the source.

Legend:
[1] = molecular target: T1, EP300 (Homo sapiens, UniProt Q09472); experiment: SILAC mass spectrometry of the nuclear proteome of Kelly cells (EP300); assay type: cell-based; conditions: 500 nM, 24 h, nuclear extract, p=3.3×10^−5
T1 construct: Cells growing in culture were lysed for whole cell lysates; endogenous in cells; host or cells: Kelly, NGP, SIMA, BE2C neuroblastoma cells; Kelly xenografts in NSG mice
T1 sequence (Q09472 whole entry): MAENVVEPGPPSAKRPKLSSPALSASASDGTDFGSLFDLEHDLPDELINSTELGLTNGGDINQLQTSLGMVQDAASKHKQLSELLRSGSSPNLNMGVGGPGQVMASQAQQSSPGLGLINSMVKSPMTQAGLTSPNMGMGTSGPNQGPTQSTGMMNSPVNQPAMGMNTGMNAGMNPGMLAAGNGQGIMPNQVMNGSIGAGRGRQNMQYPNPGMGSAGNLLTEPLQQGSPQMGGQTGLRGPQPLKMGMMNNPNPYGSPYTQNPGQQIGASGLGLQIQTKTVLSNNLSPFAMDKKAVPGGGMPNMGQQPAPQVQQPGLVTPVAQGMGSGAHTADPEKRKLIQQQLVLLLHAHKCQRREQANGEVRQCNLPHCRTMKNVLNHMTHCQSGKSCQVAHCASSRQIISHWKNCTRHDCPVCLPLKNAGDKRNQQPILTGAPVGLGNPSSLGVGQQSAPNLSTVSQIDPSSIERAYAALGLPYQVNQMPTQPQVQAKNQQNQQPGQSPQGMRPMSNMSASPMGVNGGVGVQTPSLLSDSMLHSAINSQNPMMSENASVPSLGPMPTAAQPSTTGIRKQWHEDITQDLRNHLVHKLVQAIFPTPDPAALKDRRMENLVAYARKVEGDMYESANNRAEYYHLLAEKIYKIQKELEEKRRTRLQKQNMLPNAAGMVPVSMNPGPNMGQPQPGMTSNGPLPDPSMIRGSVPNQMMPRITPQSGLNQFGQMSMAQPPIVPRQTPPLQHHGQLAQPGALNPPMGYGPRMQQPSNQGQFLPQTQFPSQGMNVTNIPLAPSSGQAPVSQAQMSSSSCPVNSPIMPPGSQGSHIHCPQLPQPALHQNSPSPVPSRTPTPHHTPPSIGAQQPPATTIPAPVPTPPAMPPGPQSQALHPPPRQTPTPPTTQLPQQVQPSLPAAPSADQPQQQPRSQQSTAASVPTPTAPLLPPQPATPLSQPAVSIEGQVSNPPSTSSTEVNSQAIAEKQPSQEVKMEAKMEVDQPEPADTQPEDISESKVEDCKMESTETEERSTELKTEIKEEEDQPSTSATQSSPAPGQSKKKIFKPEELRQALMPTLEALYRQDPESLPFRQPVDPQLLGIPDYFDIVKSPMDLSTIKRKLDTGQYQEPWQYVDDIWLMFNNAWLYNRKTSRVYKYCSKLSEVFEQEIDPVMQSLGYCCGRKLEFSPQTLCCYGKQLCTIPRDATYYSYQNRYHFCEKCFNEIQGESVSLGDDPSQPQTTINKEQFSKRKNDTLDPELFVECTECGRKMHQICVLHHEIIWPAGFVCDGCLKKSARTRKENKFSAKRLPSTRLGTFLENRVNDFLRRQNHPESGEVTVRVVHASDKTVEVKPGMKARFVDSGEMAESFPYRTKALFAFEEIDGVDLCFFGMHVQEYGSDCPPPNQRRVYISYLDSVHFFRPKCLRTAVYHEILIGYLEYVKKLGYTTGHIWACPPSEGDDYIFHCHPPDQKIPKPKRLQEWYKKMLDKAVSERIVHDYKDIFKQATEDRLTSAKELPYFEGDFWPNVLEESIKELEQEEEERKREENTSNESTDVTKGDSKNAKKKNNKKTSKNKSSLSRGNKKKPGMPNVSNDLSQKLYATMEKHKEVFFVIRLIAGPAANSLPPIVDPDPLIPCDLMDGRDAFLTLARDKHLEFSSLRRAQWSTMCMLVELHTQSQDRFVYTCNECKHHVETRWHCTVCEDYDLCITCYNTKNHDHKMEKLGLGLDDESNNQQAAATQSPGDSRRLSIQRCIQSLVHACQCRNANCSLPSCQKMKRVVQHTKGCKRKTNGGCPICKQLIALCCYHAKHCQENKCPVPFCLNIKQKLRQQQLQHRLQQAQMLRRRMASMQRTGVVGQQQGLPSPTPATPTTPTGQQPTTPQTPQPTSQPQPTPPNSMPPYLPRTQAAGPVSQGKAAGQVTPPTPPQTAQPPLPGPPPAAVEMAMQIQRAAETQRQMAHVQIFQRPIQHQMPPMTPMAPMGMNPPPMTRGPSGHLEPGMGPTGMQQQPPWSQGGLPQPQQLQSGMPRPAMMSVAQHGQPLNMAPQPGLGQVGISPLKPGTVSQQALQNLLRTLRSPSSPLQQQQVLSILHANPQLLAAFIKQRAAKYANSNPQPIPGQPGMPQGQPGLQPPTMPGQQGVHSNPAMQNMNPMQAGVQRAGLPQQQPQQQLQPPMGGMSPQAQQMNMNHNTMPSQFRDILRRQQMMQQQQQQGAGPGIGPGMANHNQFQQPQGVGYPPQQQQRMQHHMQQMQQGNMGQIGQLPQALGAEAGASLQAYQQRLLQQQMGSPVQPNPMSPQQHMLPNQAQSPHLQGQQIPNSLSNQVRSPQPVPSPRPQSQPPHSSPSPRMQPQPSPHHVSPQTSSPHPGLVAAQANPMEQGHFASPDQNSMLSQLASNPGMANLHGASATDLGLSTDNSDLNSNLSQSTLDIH
Procedure: Because JQAD1 interacted preferentially with both EP300 and CRBN, whether JQAD1 preferentially induces degradation of EP300 compared to CBP in MYCN-amplified neuroblastoma cells was examined. […] To further examine the specificity of JQAD1 for EP300, an analysis of the effects of JQAD1 in stable isotope labeling by amino acids in cell culture (SILAC)-labelled Kelly cells was performed (FIG. 3F). Kelly cells were cultured with SILAC media containing heavy or light-labelled arginine and lysine. Heavy labelled cells were treated with 500 nM JQAD1, and light-labelled cells treated with dimethyl sulfoxide (DMSO) for 24 h, prior to nuclear extraction and protein lysis. […] Protein abundance was then analyzed by mass spectrometry, to determine global changes in the nuclear proteome. […] To expand upon these findings, three NB cell lines, Kelly, NGP and SIMA, which have high levels of CRBN (e.g., protein or mRNA) (FIG. 8C), were treated with JQAD, and the effects on specific proteins were measured by western blotting. […] Peptides were detected, isolated, and fragmented to produce a tandem mass spectrum of specific fragment ions for each peptide. Peptide sequences and protein identity were determined by matching protein databases with the acquired fragmentation pattern by Sequest® (Thermo Fisher Scientific) (Eng et al. J. Am. Soc. Mass Spectrom. 5:976-89 (1994)). […]

[2] = Maximum tolerated dose testing, daily IP dosing in CD1 mice; assay type: in vivo
Procedure: For toxicity studies, four female CD1 mice (Charles River Laboratories) were injected intraperitoneally (IP) with single doses of 10 mg/Kg (R,S)-JQAD1 solubilized in 10% hydroxypropyl β-cyclodextrin (Sigma-Aldrich®) in sterile water. Following injection, blood concentration of (R,S)-JQAD1 was measured by serial measurements of animal serum at time points out to 24 h, by liquid chromatography with tandem mass spectrometry (LC-MS/MS) analysis. Pharmacokinetics were performed at ChemPartner in Shanghai, China, using LC-MS/MS method and pharmacokinetics parameters (Tmax, Cmax, T1/2, AUC, etc.) calculated with WinNonlin® V 6.2 statistics software (Pharsight Corporation) using a noncompartmental model. For maximally tolerated dose (MTD) testing, six female CD1 mice were treated with daily IP doses of (R,S)-JQAD1 at 10, 20, or 40 mg/kg. Animals were monitored for animal weight, grooming and behavior daily without noted effects. […] Animal weights, behavior and grooming were monitored daily, for a total of 21 days. […] Blood samples were obtained by retro-orbital puncture and blood analyzed at the Small Animal Imaging Facility at Beth Israel Deaconess Medical Center (Boston, MA), on a Hemavet® 9500FS (Drew Scientific) for blood counts, creatinine, AST, ALT, ALP, GGTP, and BUN measurements.

C[C@H](N(Cc1ccc(F)cc1)C(=O)CN1C(=O)O[C@@]2(CCc3cc(NC(=O)CCCCCCCCCCCNc4ccc5c(c4)C(=O)N(C4CCC(=O)NC4=O)C5=O)ccc32)C1=O)C(F)(F)F (stereo partly drawn) [JQAD1, 12-((2-(2,6-dioxopiperidin-3-yl)-1,3-dioxoisoindolin-5-yl)amino)-N-((R)-3′-(2-((4-fluorobenzyl)((S)-1,1,1-trifluoropropan-2-yl)amino)-2-oxoethyl)-2′,4′-dioxo-2,3-dihydrospiro[indene-1,5′-oxazolidin]-5-yl)dodecanamide]
EP300 protein abundance [1]: significantly decreased | tolerability / animal weight ([2]; daily IP at increasing doses (10, 20, 40 mg/kg), CD1 mice): well tolerated with no signs of animal weight loss; also recorded: no effect on animal weight | maximal dosage for single-dose IP administration without evident toxicity ([2]; mouse, IP): 40 mg/kg
